# From ChEMBL document CHEMBL3797029, “Purinylpyridinylamino-based DFG-in/αC-helix-out B-Raf inhibitors: Applying mutant versus wild-type B-Raf selectivity indices for compound profiling” (Bioorg Med Chem, 2016)
# Biological target: T1, Serine/threonine-protein kinase B-raf (Homo sapiens, UniProt P15056)
# Test: Inhibition of wild type B-Raf (unknown origin) assessed as MEK1 phosphorylation using MEK1-Avitag as substrate after 1 hr by HTRF assay
# T1 sequence (P15056 whole entry): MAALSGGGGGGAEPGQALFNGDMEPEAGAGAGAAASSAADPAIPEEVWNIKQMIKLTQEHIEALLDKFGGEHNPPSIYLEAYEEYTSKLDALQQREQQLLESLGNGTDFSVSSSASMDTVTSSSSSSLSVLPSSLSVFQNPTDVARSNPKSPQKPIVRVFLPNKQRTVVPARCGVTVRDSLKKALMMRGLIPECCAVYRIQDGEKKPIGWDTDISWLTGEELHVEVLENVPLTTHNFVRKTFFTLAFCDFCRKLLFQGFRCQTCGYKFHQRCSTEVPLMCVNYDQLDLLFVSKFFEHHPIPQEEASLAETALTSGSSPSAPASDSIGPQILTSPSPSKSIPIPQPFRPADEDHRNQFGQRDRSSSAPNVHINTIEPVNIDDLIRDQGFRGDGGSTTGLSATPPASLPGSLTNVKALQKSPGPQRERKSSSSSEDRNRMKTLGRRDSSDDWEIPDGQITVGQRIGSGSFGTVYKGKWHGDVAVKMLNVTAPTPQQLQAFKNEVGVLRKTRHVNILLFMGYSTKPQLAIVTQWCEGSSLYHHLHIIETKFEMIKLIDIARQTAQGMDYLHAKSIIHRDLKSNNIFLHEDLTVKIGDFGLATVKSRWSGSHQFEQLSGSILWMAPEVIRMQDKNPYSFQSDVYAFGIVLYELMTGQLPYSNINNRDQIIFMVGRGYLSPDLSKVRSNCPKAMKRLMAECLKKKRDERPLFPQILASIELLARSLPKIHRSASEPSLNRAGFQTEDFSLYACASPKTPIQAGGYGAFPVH
row,SMILES,IC50 [nM]
1,CC(C)(C)CS(=O)(=O)Nc1ccc(F)c(Nc2ncccc2-c2ncnc3[nH]cnc23)c1F,5
2,O=S(=O)(Nc1ccc(F)c(Nc2ncccc2-c2ncnc3[nH]cnc23)c1F)c1cn[nH]c1,1
3,O=S(=O)(Nc1ccc(F)c(Nc2ncccc2-c2ncnc3[nH]cnc23)c1F)c1cccnc1,1
4,O=S(=O)(Nc1ccc(F)c(Nc2ncccc2-c2ncnc3[nH]cnc23)c1F)c1cccs1,0.5
5,CCCC(C)S(=O)(=O)Nc1ccc(F)c(Nc2ncccc2-c2ncnc3[nH]cnc23)c1F (stereo not given),112
6,O=S(=O)(Cc1ccccc1)Nc1ccc(F)c(Nc2ncccc2-c2ncnc3[nH]cnc23)c1F,111
7,CCN(CC)S(=O)(=O)Nc1ccc(F)c(Nc2ncccc2-c2ncnc3[nH]cnc23)c1F,165
8,Cn1cc(S(=O)(=O)Nc2ccc(F)c(Nc3ncccc3-c3ncnc4[nH]cnc34)c2F)cn1,19

# The next lines start with the values.
row,IC50 [nM],SMILES
1,38,CCC(C)S(=O)(=O)Nc1ccc(F)c(Nc2ncccc2-c2ncnc3[nH]cnc23)c1F (stereo not given)
2,> 1000,O=S(=O)(Nc1ccc(F)c(Nc2ncccc2-c2ncnc3[nH]cnc23)c1F)N1CCNCC1
3,122,O=S(=O)(Nc1ccc(F)c(Nc2ncccc2-c2ncnc3[nH]cnc23)c1F)N1CC[C@H](O)C1
4,102,O=S(=O)(Nc1ccc(F)c(Nc2ncccc2-c2ncnc3[nH]cnc23)c1F)N1CCOCC1
5,179,O=S(=O)(Nc1ccc(F)c(Nc2ncccc2-c2ncnc3[nH]cnc23)c1F)C1CCOCC1
6,10,O=S(=O)(CC(F)(F)F)Nc1ccc(F)c(Nc2ncccc2-c2ncnc3[nH]cnc23)c1F
7,157,CCN(C)S(=O)(=O)Nc1ccc(F)c(Nc2ncccc2-c2ncnc3[nH]cnc23)c1F
8,46,O=S(=O)(Nc1ccc(F)c(Nc2ncccc2-c2ncnc3[nH]cnc23)c1F)C1CCC1
9,51,O=S(=O)(Nc1ccc(F)c(Nc2ncccc2-c2ncnc3[nH]cnc23)c1F)C1CCCCC1

# Biological target: T2, Serine/threonine-protein kinase B-raf (Homo sapiens, UniProt P15056, V600E)
# T2 sequence (P15056 2-766 V600E limits assumed): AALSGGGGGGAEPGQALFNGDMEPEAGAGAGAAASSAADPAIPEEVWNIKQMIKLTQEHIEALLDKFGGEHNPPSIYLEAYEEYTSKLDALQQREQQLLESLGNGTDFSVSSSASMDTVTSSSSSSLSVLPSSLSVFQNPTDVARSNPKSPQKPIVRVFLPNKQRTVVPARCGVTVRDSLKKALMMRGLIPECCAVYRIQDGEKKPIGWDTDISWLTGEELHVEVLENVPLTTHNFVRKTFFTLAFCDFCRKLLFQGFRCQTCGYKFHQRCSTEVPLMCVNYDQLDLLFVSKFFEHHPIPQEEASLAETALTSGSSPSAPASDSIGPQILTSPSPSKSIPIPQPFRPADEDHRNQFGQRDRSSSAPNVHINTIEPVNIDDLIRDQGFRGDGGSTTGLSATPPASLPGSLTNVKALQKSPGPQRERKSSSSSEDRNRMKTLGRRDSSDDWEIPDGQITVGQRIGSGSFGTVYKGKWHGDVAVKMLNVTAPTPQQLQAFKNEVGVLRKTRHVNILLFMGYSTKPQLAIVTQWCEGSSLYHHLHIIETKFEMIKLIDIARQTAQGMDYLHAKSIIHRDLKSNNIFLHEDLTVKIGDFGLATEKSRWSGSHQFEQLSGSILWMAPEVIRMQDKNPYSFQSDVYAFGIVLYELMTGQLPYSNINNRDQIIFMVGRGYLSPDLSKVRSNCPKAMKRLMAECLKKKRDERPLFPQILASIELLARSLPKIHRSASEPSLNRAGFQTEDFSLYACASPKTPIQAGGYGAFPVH
# Test: Inhibition of B-Raf V600E mutant in human A375 cells assessed as ERK phosphorylation preincubated for 1 hr by Western blot method
# Type: cell-based, A-375
row,SMILES,IC50 [nM]
1,CC(C)(C)CS(=O)(=O)Nc1ccc(F)c(Nc2ncccc2-c2ncnc3[nH]cnc23)c1F,63
2,O=S(=O)(Nc1ccc(F)c(Nc2ncccc2-c2ncnc3[nH]cnc23)c1F)c1cn[nH]c1,6
3,O=S(=O)(Nc1ccc(F)c(Nc2ncccc2-c2ncnc3[nH]cnc23)c1F)c1cccnc1,10
4,O=S(=O)(Nc1ccc(F)c(Nc2ncccc2-c2ncnc3[nH]cnc23)c1F)c1cccs1,7
5,CCCC(C)S(=O)(=O)Nc1ccc(F)c(Nc2ncccc2-c2ncnc3[nH]cnc23)c1F (stereo not given),130
6,O=S(=O)(Cc1ccccc1)Nc1ccc(F)c(Nc2ncccc2-c2ncnc3[nH]cnc23)c1F,> 1000
7,CCN(CC)S(=O)(=O)Nc1ccc(F)c(Nc2ncccc2-c2ncnc3[nH]cnc23)c1F,603
8,Cc1n[nH]c(C)c1S(=O)(=O)Nc1ccc(F)c(Nc2ncccc2-c2ncnc3[nH]cnc23)c1F,> 1000
9,Cn1cc(S(=O)(=O)Nc2ccc(F)c(Nc3ncccc3-c3ncnc4[nH]cnc34)c2F)cn1,710

# Results, then the compound that gave them:
row,IC50 [nM],SMILES
1,27,CCC(C)S(=O)(=O)Nc1ccc(F)c(Nc2ncccc2-c2ncnc3[nH]cnc23)c1F (stereo not given)
2,1000,O=S(=O)(Nc1ccc(F)c(Nc2ncccc2-c2ncnc3[nH]cnc23)c1F)N1CCNCC1
3,201,O=S(=O)(Nc1ccc(F)c(Nc2ncccc2-c2ncnc3[nH]cnc23)c1F)N1CC[C@H](O)C1
4,293,O=S(=O)(Nc1ccc(F)c(Nc2ncccc2-c2ncnc3[nH]cnc23)c1F)N1CCOCC1
5,356,O=S(=O)(Nc1ccc(F)c(Nc2ncccc2-c2ncnc3[nH]cnc23)c1F)C1CCOCC1
6,40,O=S(=O)(CC(F)(F)F)Nc1ccc(F)c(Nc2ncccc2-c2ncnc3[nH]cnc23)c1F
7,87,CCN(C)S(=O)(=O)Nc1ccc(F)c(Nc2ncccc2-c2ncnc3[nH]cnc23)c1F
8,41,O=S(=O)(Nc1ccc(F)c(Nc2ncccc2-c2ncnc3[nH]cnc23)c1F)C1CCC1
9,40,O=S(=O)(Nc1ccc(F)c(Nc2ncccc2-c2ncnc3[nH]cnc23)c1F)C1CCCCC1

# System: MIA PaCa-2
# Test: Selectivity index, ratio of EC50 for wild type B-Raf in human MIAPaCa2 cells to IC50 for B-Raf V600E mutant in human A375 cells
# Type: cell-based
row,SMILES,Ratio
1,CCC(C)S(=O)(=O)Nc1ccc(F)c(Nc2ncccc2-c2ncnc3[nH]cnc23)c1F (stereo not given),29
2,CC(C)(C)CS(=O)(=O)Nc1ccc(F)c(Nc2ncccc2-c2ncnc3[nH]cnc23)c1F,3
3,O=S(=O)(Nc1ccc(F)c(Nc2ncccc2-c2ncnc3[nH]cnc23)c1F)c1cn[nH]c1,135
4,O=S(=O)(Nc1ccc(F)c(Nc2ncccc2-c2ncnc3[nH]cnc23)c1F)c1cccnc1,79
5,O=S(=O)(Nc1ccc(F)c(Nc2ncccc2-c2ncnc3[nH]cnc23)c1F)c1cccs1,57
6,CCCC(C)S(=O)(=O)Nc1ccc(F)c(Nc2ncccc2-c2ncnc3[nH]cnc23)c1F (stereo not given),62
7,O=S(=O)(Nc1ccc(F)c(Nc2ncccc2-c2ncnc3[nH]cnc23)c1F)N1CCOCC1,12
8,CCN(CC)S(=O)(=O)Nc1ccc(F)c(Nc2ncccc2-c2ncnc3[nH]cnc23)c1F,16
9,O=S(=O)(CC(F)(F)F)Nc1ccc(F)c(Nc2ncccc2-c2ncnc3[nH]cnc23)c1F,18
10,CCN(C)S(=O)(=O)Nc1ccc(F)c(Nc2ncccc2-c2ncnc3[nH]cnc23)c1F,20
11,Cn1cc(S(=O)(=O)Nc2ccc(F)c(Nc3ncccc3-c3ncnc4[nH]cnc34)c2F)cn1,3
12,O=S(=O)(Nc1ccc(F)c(Nc2ncccc2-c2ncnc3[nH]cnc23)c1F)C1CCC1,44
13,O=S(=O)(Nc1ccc(F)c(Nc2ncccc2-c2ncnc3[nH]cnc23)c1F)C1CCCCC1,109

# Biological target: T1, Serine/threonine-protein kinase B-raf
# Test: Inhibition of wild type B-Raf in human MIAPaCa2 cells assessed as reduction in ERK phosphorylation preincubated for 1 hr by Western blot method
# Type: cell-based, MIA PaCa-2
row,SMILES,EC50 [nM]
1,CC(C)(C)CS(=O)(=O)Nc1ccc(F)c(Nc2ncccc2-c2ncnc3[nH]cnc23)c1F,202
2,O=S(=O)(Nc1ccc(F)c(Nc2ncccc2-c2ncnc3[nH]cnc23)c1F)c1cn[nH]c1,807
3,O=S(=O)(Nc1ccc(F)c(Nc2ncccc2-c2ncnc3[nH]cnc23)c1F)c1cccnc1,786
4,O=S(=O)(Nc1ccc(F)c(Nc2ncccc2-c2ncnc3[nH]cnc23)c1F)c1cccs1,402
5,CCCC(C)S(=O)(=O)Nc1ccc(F)c(Nc2ncccc2-c2ncnc3[nH]cnc23)c1F (stereo not given),8090
6,O=S(=O)(Cc1ccccc1)Nc1ccc(F)c(Nc2ncccc2-c2ncnc3[nH]cnc23)c1F,5080
7,CCN(CC)S(=O)(=O)Nc1ccc(F)c(Nc2ncccc2-c2ncnc3[nH]cnc23)c1F,9910
8,Cn1cc(S(=O)(=O)Nc2ccc(F)c(Nc3ncccc3-c3ncnc4[nH]cnc34)c2F)cn1,2220

# Further lines, results first:
row,EC50 [nM],SMILES
1,778,CCC(C)S(=O)(=O)Nc1ccc(F)c(Nc2ncccc2-c2ncnc3[nH]cnc23)c1F (stereo not given)
2,3580,O=S(=O)(Nc1ccc(F)c(Nc2ncccc2-c2ncnc3[nH]cnc23)c1F)N1CCOCC1
3,713,O=S(=O)(CC(F)(F)F)Nc1ccc(F)c(Nc2ncccc2-c2ncnc3[nH]cnc23)c1F
4,1780,CCN(C)S(=O)(=O)Nc1ccc(F)c(Nc2ncccc2-c2ncnc3[nH]cnc23)c1F
5,1790,O=S(=O)(Nc1ccc(F)c(Nc2ncccc2-c2ncnc3[nH]cnc23)c1F)C1CCC1
6,4370,O=S(=O)(Nc1ccc(F)c(Nc2ncccc2-c2ncnc3[nH]cnc23)c1F)C1CCCCC1

# Biological target: T2, Serine/threonine-protein kinase B-raf
# Test: Inhibition of B-Raf V600E mutant (unknown origin) assessed as MEK1 phosphorylation using MEK1-Avitag as substrate after 1 hr by HTRF assay
row,SMILES,IC50 [nM]
1,CC(C)(C)CS(=O)(=O)Nc1ccc(F)c(Nc2ncccc2-c2ncnc3[nH]cnc23)c1F,6
2,O=S(=O)(Nc1ccc(F)c(Nc2ncccc2-c2ncnc3[nH]cnc23)c1F)c1cn[nH]c1,0.2
3,O=S(=O)(Nc1ccc(F)c(Nc2ncccc2-c2ncnc3[nH]cnc23)c1F)c1cccnc1,1
4,O=S(=O)(Nc1ccc(F)c(Nc2ncccc2-c2ncnc3[nH]cnc23)c1F)c1cccs1,1
5,CCCC(C)S(=O)(=O)Nc1ccc(F)c(Nc2ncccc2-c2ncnc3[nH]cnc23)c1F (stereo not given),18
6,O=S(=O)(Cc1ccccc1)Nc1ccc(F)c(Nc2ncccc2-c2ncnc3[nH]cnc23)c1F,186
7,CCN(CC)S(=O)(=O)Nc1ccc(F)c(Nc2ncccc2-c2ncnc3[nH]cnc23)c1F,57
8,Cc1n[nH]c(C)c1S(=O)(=O)Nc1ccc(F)c(Nc2ncccc2-c2ncnc3[nH]cnc23)c1F,216
9,Cn1cc(S(=O)(=O)Nc2ccc(F)c(Nc3ncccc3-c3ncnc4[nH]cnc34)c2F)cn1,8

# The remaining lines, values ahead:
row,IC50 [nM],SMILES
1,7,CCC(C)S(=O)(=O)Nc1ccc(F)c(Nc2ncccc2-c2ncnc3[nH]cnc23)c1F (stereo not given)
2,> 1000,O=S(=O)(Nc1ccc(F)c(Nc2ncccc2-c2ncnc3[nH]cnc23)c1F)N1CCNCC1
3,9,O=S(=O)(Nc1ccc(F)c(Nc2ncccc2-c2ncnc3[nH]cnc23)c1F)N1CC[C@H](O)C1
4,62,O=S(=O)(Nc1ccc(F)c(Nc2ncccc2-c2ncnc3[nH]cnc23)c1F)N1CCOCC1
5,31,O=S(=O)(Nc1ccc(F)c(Nc2ncccc2-c2ncnc3[nH]cnc23)c1F)C1CCOCC1
6,3,O=S(=O)(CC(F)(F)F)Nc1ccc(F)c(Nc2ncccc2-c2ncnc3[nH]cnc23)c1F
7,22,CCN(C)S(=O)(=O)Nc1ccc(F)c(Nc2ncccc2-c2ncnc3[nH]cnc23)c1F
8,4,O=S(=O)(Nc1ccc(F)c(Nc2ncccc2-c2ncnc3[nH]cnc23)c1F)C1CCC1
9,18,O=S(=O)(Nc1ccc(F)c(Nc2ncccc2-c2ncnc3[nH]cnc23)c1F)C1CCCCC1
